The values that follow come from publication PMC5303825, “The ancient CYP716 family is a major contributor to the diversification of eudicot triterpenoid biosynthesis” (Nature Communications, 2017).

Type in all cases: cell-based
The target of one assay is T1, CYP716A83 (Centella asiatica, UniProt A0A1I9Q5Y4).
T1 construct: full-length ORF from cDNA library, expressed in Saccharomyces cerevisiae with GgBAS (or CaDDS) and M. truncatula reductase MTR1; T2A polyprotein with CYP716C11 in some strains
T1 sequence (A0A1I9Q5Y4 entry or part of it): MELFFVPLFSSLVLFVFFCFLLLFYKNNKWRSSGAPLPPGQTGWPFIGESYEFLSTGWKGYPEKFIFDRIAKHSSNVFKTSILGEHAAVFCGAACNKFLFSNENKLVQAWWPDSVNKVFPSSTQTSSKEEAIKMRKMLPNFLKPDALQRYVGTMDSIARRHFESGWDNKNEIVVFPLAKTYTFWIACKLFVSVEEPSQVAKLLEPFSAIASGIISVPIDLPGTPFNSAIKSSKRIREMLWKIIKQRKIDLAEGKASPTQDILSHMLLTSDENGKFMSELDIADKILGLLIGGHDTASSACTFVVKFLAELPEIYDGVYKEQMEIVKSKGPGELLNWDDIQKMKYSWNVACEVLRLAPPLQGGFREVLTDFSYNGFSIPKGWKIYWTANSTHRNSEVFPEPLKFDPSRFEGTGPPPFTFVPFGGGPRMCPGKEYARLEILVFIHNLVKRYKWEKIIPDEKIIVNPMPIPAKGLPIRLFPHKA
Put plainly: GC-MS of products in spent medium of engineered yeast.

The target in another assay is T2, CYP716C11 (Centella asiatica, UniProt A0A1I9Q5Y7).
T2 construct: gene MAA45; full-length ORF from cDNA library, expressed in Saccharomyces cerevisiae with GgBAS (or CaDDS), CYP716A83 and M. truncatula reductase MTR1; T2A polyprotein CYP716A83-CYP716C11
T2 sequence (A0A1I9Q5Y7 1-475): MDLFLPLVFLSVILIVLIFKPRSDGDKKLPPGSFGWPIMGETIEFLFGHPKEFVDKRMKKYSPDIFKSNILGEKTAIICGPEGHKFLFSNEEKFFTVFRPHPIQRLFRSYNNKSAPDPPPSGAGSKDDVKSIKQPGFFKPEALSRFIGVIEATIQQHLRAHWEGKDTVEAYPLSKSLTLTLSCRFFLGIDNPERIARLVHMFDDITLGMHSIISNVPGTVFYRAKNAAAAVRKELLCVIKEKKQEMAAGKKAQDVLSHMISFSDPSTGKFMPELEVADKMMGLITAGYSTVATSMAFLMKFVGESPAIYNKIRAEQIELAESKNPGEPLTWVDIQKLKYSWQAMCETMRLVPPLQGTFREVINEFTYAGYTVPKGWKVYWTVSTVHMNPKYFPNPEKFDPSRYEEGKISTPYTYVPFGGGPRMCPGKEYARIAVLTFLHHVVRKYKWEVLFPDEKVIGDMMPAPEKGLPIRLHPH
The description is as above. To be noted: co-expressed GgBAS, CYP716A83 and MTR1; product maslinic acid.

Another assay addresses T3, CYP716E41 (Centella asiatica, UniProt A0A1I9Q5Y6).
T3 construct: full-length ORF from cDNA library, expressed in Saccharomyces cerevisiae with GgBAS, CYP716A83 and M. truncatula reductase MTR1
T3 sequence (A0A1I9Q5Y6 1-477): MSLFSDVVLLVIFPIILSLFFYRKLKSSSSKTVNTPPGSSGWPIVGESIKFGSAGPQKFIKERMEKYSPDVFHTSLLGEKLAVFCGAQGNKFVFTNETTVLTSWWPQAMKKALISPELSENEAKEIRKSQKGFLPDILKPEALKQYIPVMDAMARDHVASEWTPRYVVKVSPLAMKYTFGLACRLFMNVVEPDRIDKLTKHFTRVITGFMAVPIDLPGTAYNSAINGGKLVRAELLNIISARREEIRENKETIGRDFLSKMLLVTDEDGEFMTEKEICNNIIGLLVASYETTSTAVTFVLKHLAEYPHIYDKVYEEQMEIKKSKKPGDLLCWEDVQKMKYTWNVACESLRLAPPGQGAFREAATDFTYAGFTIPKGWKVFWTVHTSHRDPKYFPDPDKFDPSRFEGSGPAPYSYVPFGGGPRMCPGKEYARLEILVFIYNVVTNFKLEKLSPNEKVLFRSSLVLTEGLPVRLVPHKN
The description is as above. To be noted: co-expressed GgBAS, CYP716A83 and MTR1; putative product 6β-hydroxy oleanolic acid.

In the next assay the target is T4, CYP716A113v1 (Aquilegia coerulea, UniProt A0A1I9Q601).
T4 construct: full-length ORF from cDNA, expressed in Saccharomyces cerevisiae with tomato SlCAS and M. truncatula reductase MTR1
T4 sequence (A0A1I9Q601 1-485): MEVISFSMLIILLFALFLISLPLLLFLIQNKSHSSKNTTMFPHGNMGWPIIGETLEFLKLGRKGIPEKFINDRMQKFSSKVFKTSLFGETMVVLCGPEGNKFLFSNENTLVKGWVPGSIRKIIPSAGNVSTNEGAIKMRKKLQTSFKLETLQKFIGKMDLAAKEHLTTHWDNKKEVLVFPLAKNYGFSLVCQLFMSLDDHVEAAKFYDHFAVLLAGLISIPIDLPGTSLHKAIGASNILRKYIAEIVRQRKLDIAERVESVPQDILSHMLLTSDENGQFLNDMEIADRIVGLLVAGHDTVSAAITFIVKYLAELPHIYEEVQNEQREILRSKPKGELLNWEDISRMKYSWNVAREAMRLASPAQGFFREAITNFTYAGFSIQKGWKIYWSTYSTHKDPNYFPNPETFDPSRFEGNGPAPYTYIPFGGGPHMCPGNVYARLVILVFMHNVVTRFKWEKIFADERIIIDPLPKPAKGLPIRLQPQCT
The description is as above. To be noted: co-expressed SlCAS and MTR1; putative hydroxy-cycloartenol product.

For a further assay, the target named is T5, CYP716A110 (Aquilegia coerulea, UniProt A0A1I9Q5Z9).
T5 construct: full-length ORF from cDNA, expressed in Saccharomyces cerevisiae with GgBAS and M. truncatula reductase MTR1
T5 sequence (A0A1I9Q5Z9 1-480): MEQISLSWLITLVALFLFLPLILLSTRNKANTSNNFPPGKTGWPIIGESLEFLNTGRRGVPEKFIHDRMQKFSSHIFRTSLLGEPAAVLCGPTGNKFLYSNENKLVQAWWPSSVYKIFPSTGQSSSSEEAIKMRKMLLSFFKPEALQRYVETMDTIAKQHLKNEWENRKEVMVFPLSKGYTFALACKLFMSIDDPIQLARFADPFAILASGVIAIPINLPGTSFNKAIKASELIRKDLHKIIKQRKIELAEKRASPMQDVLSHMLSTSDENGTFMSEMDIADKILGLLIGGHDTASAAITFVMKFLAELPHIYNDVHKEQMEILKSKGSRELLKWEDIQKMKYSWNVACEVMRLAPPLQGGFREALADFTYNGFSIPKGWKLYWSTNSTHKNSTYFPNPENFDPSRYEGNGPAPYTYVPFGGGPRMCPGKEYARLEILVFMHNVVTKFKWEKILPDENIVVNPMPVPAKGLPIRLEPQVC
The assay is described as above. The conditions noted are these: co-expressed GgBAS and MTR1; products erythrodiol, oleanolic acid.

In another assay the target is T6, CYP716A141 (Platycodon grandiflorus, UniProt A0A1I9Q5Z0).
T6 construct: full-length ORF (RACE), expressed in Saccharomyces cerevisiae with GgBAS and M. truncatula reductase MTR1; b33 once misprints C. asiatica
T6 sequence (A0A1I9Q5Z0 1-481): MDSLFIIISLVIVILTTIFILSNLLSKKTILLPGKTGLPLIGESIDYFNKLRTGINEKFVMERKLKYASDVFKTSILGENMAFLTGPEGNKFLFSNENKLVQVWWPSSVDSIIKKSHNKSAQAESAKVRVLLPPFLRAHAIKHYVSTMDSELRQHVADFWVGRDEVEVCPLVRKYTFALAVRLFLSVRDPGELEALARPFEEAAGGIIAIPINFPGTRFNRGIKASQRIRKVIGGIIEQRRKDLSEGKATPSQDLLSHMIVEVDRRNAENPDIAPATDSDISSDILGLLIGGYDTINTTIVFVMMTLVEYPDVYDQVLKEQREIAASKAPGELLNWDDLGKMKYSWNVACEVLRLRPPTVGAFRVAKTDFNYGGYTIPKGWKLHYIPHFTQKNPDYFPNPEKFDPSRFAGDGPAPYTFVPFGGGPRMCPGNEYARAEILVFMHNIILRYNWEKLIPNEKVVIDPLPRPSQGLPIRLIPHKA
The assay can be described thus: GC-MS of engineered yeast medium; product NMR. The conditions noted are these: co-expressed GgBAS and MTR1; product 16β-hydroxy β-amyrin (minor erythrodiol, oleanolic acid).

Another assay deals with T7, CYP716A140 (Platycodon grandiflorus, UniProt A0A1I9Q5Y8).
T7 construct: full-length ORF (RACE), expressed in Saccharomyces cerevisiae with GgBAS and M. truncatula reductase MTR1
T7 sequence (A0A1I9Q5Y8 1-479): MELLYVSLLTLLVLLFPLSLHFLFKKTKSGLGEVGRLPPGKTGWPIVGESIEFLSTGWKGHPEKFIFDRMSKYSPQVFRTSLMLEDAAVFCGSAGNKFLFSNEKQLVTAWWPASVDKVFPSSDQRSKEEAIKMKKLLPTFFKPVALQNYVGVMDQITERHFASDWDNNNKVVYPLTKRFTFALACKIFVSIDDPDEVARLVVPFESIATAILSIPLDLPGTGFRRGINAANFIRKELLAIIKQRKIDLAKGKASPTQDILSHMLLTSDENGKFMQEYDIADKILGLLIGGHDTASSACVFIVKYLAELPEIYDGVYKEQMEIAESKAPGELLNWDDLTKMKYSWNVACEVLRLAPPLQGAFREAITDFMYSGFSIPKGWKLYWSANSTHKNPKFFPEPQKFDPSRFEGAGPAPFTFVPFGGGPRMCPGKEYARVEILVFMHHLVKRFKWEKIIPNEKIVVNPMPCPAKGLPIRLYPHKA
Put plainly: GC-MS of products in spent medium of engineered yeast. The conditions noted are these: co-expressed GgBAS and MTR1; products of C-28 oxidation: erythrodiol, oleanolic acid.

The next assay deals with T8, CYP716A86 (Centella asiatica, UniProt A0A1I9Q5Y3).
T8 construct: full-length ORF from cDNA library, expressed in Saccharomyces cerevisiae with GgBAS and M. truncatula reductase MTR1
T8 sequence (A0A1I9Q5Y3 1-482): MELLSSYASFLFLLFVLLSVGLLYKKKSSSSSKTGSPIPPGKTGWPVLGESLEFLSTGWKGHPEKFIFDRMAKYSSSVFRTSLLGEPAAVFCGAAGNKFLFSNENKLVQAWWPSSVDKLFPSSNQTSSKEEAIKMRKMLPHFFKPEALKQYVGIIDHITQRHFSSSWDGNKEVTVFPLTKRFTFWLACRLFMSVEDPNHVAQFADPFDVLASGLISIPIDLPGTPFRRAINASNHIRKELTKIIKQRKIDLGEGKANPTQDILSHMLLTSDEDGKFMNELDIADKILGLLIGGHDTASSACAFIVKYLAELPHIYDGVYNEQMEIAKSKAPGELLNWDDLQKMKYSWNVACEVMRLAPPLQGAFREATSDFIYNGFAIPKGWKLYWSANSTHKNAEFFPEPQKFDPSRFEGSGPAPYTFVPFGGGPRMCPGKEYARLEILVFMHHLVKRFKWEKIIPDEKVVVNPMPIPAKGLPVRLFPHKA
The assay is described as above. To be noted: co-expressed GgBAS and MTR1; products erythrodiol, oleanolic aldehyde, oleanolic acid.

For the compound `C[C@H]1[C@H](C)CC[C@]2(C)CC[C@]3(C)C(=CC[C@@H]4[C@@]5(C)CC[C@H](O)C(C)(C)[C@@H]5CC[C@]43C)[C@H]12` [α-amyrin], the “GC-MS of products in spent medium of engineered yeast” value (from here on “GC-MS of products”) on CYP716A83 (co-expressed CaDDS and MTR1 (with CYP716E41 or CYP716C11), product ursolic acid) was “CYP716A83, CYP716C11 and CYP716E41 can function on both oleanane and ursane backbones”.
For `CC1(C)CC[C@]2(C(=O)O)CC[C@]3(C)C(=CC[C@@H]4[C@@]5(C)CC[C@H](O)C(C)(C)[C@@H]5CC[C@]43C)[C@@H]2C1` [oleanolic acid], the “GC-MS of products” value at CYP716C11 is “CYP716C11 and CYP716E41 converted oleanolic acid to maslinic acid”; on CYP716E41, “CYP716C11 and CYP716E41 converted oleanolic acid to maslinic acid”.
Turning to `CC(C)=CCC[C@@H](C)[C@H]1CC[C@@]2(C)[C@@H]3CC[C@H]4C(C)(C)[C@@H](O)CC[C@@]45C[C@@]35CC[C@]12C` [cycloartenol], at CYP716A113v1, the “GC-MS of products” value was “dependent on both SlCAS and CYP716A113v1”.
On to `CC1(C)CC[C@]2(C)CC[C@]3(C)C(=CC[C@@H]4[C@@]5(C)CC[C@H](O)C(C)(C)[C@@H]5CC[C@]43C)[C@@H]2C1` [β-amyrin], for which the “GC-MS of products” value on CYP716A110 was “CYP716A110 revealed new peaks corresponding to the erythrodiol and oleanolic acid standards”; at CYP716A140, “CYP716A140-expressing yeast showed three new peaks corresponding to C-28 oxidation”; at CYP716A83 (co-expressed GgBAS and MTR1, in vivo, products erythrodiol, oleanolic aldehyde, oleanolic acid) it was “CYP716A83 and CYP716A86 catalyse the three-step oxidation of β-amyrin at the C-28 position”; on CYP716A86, “CYP716A83 and CYP716A86 catalyse the three-step oxidation of β-amyrin at the C-28 position”. Also, the “GC-MS of engineered yeast medium; product NMR” value at CYP716A141 was “CYP716A141 appears to be a multifunctional β-amyrin oxidase”.
